Reference: US9650371B2, “Sulfur-containing heterocyclic derivative having beta secretase inhibitory activity” (Shionogi & Co., Ltd., priority 2008, dated 2017)

Molecular target: human ether-a-go-go related gene (hERG) channel (Homo sapiens (Human), UniProt Q12809)
Test: hERG test
Format: cell-based
Conditions: HEK293 cells expressing hERG, whole cell patch clamp, 10 minutes
Description: For the purpose of assessing risk of an electrocardiogram QT interval prolongation, effects on delayed rectifier K+ current (IKr), which plays an important role in the ventricular repolarization process, was studied using HEK293 cells expressing human ether-a-go-go related gene (hERG) channel.
After a cell was retained at a membrane potential of −80 mV by whole cell patch clamp method using an automated patch clamp system (PatchXpress 7000A, Axon Instruments Inc.), IKr induced by depolarization pulse stimulation at +50 mV for 2 seconds and, further, repolarization pulse stimulation at −50 mV for 2 seconds was recorded. […] From the recording IKr, an absolute value of the tail peak current was measured based on the current value at the resting membrane potential using an analysis software (DataXpress ver.1, Molecular Devices Corporation). Further, the % inhibition relative to the tail peak current before application of the test substance was calculated, and compared with the vehicle-applied group (0.1% dimethyl sulfoxide solution) to assess influence of the test substance on IKr.

human ether-a-go-go related gene (hERG) channel, sequence (Q12809 whole entry): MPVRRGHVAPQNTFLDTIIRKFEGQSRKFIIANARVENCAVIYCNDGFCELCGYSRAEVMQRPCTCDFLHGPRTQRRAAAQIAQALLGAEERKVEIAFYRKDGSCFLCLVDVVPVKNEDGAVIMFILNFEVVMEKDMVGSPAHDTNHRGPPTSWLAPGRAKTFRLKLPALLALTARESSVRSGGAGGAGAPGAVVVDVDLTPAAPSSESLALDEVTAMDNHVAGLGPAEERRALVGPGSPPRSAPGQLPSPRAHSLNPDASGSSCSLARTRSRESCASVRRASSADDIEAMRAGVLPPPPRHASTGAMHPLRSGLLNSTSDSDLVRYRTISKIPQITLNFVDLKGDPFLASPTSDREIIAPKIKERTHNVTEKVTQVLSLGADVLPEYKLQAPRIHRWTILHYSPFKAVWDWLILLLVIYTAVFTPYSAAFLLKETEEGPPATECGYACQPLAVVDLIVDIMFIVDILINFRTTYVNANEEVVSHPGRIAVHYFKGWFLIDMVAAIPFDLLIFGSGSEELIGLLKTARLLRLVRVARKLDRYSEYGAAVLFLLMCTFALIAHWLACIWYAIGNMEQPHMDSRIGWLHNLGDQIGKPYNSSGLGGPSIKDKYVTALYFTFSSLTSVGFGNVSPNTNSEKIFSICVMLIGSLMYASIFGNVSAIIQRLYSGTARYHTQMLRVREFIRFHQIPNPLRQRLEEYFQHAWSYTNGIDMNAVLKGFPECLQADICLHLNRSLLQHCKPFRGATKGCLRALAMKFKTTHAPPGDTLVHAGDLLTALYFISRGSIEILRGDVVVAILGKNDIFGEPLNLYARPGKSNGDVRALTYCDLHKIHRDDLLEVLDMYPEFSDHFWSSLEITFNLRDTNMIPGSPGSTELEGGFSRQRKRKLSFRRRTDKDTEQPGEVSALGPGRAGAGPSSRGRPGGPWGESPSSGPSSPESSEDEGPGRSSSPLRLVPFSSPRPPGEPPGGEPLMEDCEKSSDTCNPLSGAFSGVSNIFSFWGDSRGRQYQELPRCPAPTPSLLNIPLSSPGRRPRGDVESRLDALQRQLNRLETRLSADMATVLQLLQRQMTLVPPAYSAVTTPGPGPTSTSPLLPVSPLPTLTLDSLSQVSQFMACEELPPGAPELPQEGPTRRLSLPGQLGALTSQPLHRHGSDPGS

Compound: CNC(=O)c1ccc(-c2ccc(F)c([C@]3(C)C=CSC(N)=N3)c2)cn1 [Compound 92]
- % inhibition of tail peak current (IKr): 7.9%

Compound: C=C1C[C@@](C)(c2cc(NC(=O)c3cnc(OC)cn3)cnc2C)N=C(N)S1 [Compound 102]
- % inhibition of tail peak current (IKr): 2.3%
